# According to ChEMBL document CHEMBL4616651, “6-Deoxy- and 11-Hydroxytolypodiols: Meroterpenoids from the Cyanobacterium HT-58-2” (J Nat Prod, 2020):
# Calls of active or inactive are those of the source. The calls are words filed in the database; no cut-off is given here.
# Experiments:
# [1] = test system: Mus musculus; test: Antiinflammatory activity in mouse assessed as reduction in PMA induced ear edema topically administered per ear and measured after 200 mins; type: functional
# [2] = test system: Microglia; test: Antiinflammatory activity against LPS-induced rat Primary neonatal microglia assessed as inhibition in TXB2 generation preincubated for 20 mins followed by PMA-stimulation and measured after 70 mins by immunoassay; type: functional, cell-based
# [3] = test system: Microglia; test: Antiinflammatory activity against LPS-induced rat Primary neonatal microglia assessed as inhibition in superoxide anion generation preincubated for 20 mins followed by PMA-stimulation and measured after 70 mins by spectrophotometric method; type: functional, cell-based
Structure (SMILES),ED50 [1],IC50 [2],inhibition [3]
C[C@]12CCC(=O)C=C1CC[C@@H]1[C@@H]2[C@@H](O)C[C@@]2(C)[C@H]1CC[C@]2(O)C(=O)CO [HYDROCORTISONE],20 µg,,
COC(=O)c1ccc2c(c1)C[C@H]1[C@]3(C)C[C@@H](O)[C@H]4C(C)(C)CC[C@@H](O)[C@]4(C)[C@H]3CC[C@]1(C)O2 [TOLYPODIOL],30 µg,,
CC(C(=O)O)c1ccc(-c2ccccc2)c(F)c1 (stereo not given) [FLURBIPROFEN],,100 nM,
COC(=O)c1ccc2c(c1)C[C@H]1[C@]3(C)C[C@@H](O)[C@H]4C(C)(C)CC[C@@H](O)[C@]4(C)[C@H]3[C@@H](O)C[C@]1(C)O2,,100 nM,inactive
